This is an account of results in US20190110476A1, “NOVEL ISOTHIAZOLAMIDES, PROCESSES FOR THEIR PREPARATION AND THEIR USE AS FUNGICIDES” (priority 2014, published 2019).

Marks after values point to notes of the source that are not given here.

The data set is described as follows: Measurement of LogP values by HPLC on reversed phase columns (EEC directive 79/831 Annex V.A8). The format is physicochemical. The procedure, abridged: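 LogP measured by reversed-phase HPLC following EEC directive 79/831 Annex V.A8. Lambda-max taken from UV spectra at 200–400 nm at chromatographic peak maxima; diastereoisomer values listed separately.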
`O=C(NCc1ccccc1F)c1snc(N(S(=O)(=O)c2ccccc2)S(=O)(=O)c2ccccc2)c1Cl` [II-012]: the “LogP [a]” value is 4.15^[a].

In the case of `CCS(C)=Nc1nsc(C(=O)NCC2CCCCC2)c1Cl` (stereo not drawn) [II-091], the “LogP [a]” value is 1.94^[a].

For the compound `O=C(NC(Cc1ccccc1)C1CC=CCC1)c1snc(Cl)c1Cl` (stereo not drawn) [E-II-034], the “LogP [a]” value was found to be 4.87 and the “LogP [b]” value was 4.75.

On to `CC(C)CN(C(=O)c1snc(N)c1Cl)C1CC1` [I-902], for which the LogP was 2.25[a].

As for `O=C(Nc1nsc(C(=O)NCC2CCCCC2)c1Cl)c1ccccc1` [I-168], the LogP is 3.19[a].

On to `Cc1ccc(C2(C)CC2)c(CNC(=O)c2snc(N)c2Cl)c1` [I-414], for which the LogP is 3.29[a].

Consider `O=C(NCC1CCOCC1)c1snc(Cl)c1Cl` [E-II-004], for which the “LogP [a]” value is 2.05^[a].

In the case of `Nc1nsc(C(=O)NCC2CCCCC2Cl)c1I` (stereo not drawn) [I-1293], the LogP was 2.50[a].

As to `C[C@@H](NC(=O)c1snc(N)c1Cl)C1CCCCC1` [I-077], the LogP is 2.78[a].

In the case of `COc1ccc(CNc2nsc(C(=O)NCc3ccc(C)o3)c2Cl)cc1` [I-674], the LogP is 3.27[a].

For the compound `COc1ccc(CNc2nsc(C(=O)NC(Cn3ccnc3)C(C)(C)C)c2Cl)cc1` (stereo not drawn) [I-1324], the LogP is 1.82[a].

Take `CC1(C)CC1N(Cc1ccc(Cl)cc1Cl)C(=O)c1cc(N(Cc2ccccc2)Cc2ccccc2)ns1` (stereo not drawn) [I-942]: the LogP is 6.79[a].

For `CCC1CC(C)CC(CC)C1NC(=O)c1snc(NCc2ccc(OC)cc2)c1Cl` (stereo not drawn) [I-1191], the LogP is 6.02[a].

For `CC(NC(=O)c1snc(Cl)c1Cl)C1CCCO1` (stereo not drawn) [E-II-032], the “LogP [a]” value was determined as 2.72 and the “LogP [b]” value amounted to 2.69.

On to `CS(C)(=O)=Nc1nsc(C(=O)NCC2CCCCC2)c1Cl` [II-049], for which the “LogP [a]” value was 2.47^[a].

As to `Nc1nsc(C(=O)NCc2cc(Cl)ccc2C(F)(F)F)c1Cl` [I-327], the LogP is 2.88[a].

With `Nc1nsc(C(=O)NCC2CCCCC2)c1Cl` [I-002], the LogP is 2.40[a].

As for `N#Cc1cccc(CNC(=O)c2snc(N)c2Cl)c1` [I-1289], the LogP is 1.41[a].

For `COc1ccc(CNc2nsc(C(=O)N(Cc3ccc(Cl)cc3Cl)C(C)C)c2Cl)cc1` [I-944], the LogP was 5.39[a].

For `Nc1nsc(C(=O)N2CCc3ccccc3C2)c1Cl` [II-020], the “LogP [a]” value is listed as 2.02 and the “LogP [b]” value is given as 1.98.

For the compound `Nc1nsc(C(=O)NCc2ccccc2F)c1C1CC1` [I-361], the LogP was 1.88[a].

In the case of `COc1ccc(CNc2nsc(C(=O)NCc3cc(C)ccc3C(C)C)c2Cl)cc1` [I-392], the LogP was 4.80[a].

On to `COc1ccc(CNc2nsc(C(=O)N3CCCc4ccc(C(F)(F)F)cc43)c2Cl)cc1` [II-062], for which the “LogP [a]” value is listed as 4.37 and the “LogP [b]” value is 4.25.

Regarding `O=C(NCc1ccccc1F)c1snc(Cl)c1Cl` [E-II-008], the “LogP [a]” value is 3.23^[a].

In the case of `COc1ccc(CNc2nsc(C(=O)N(Cc3cc(C)cc(C)c3)C3CC3)c2Cl)cc1` [I-872], the LogP is 4.90[a].

Regarding `CC(=O)N(C(C)=O)c1nsc(C(=O)N[C@@H](C)C2CCCCC2)c1Cl` [I-094], the LogP is 3.73[a].

As to `COc1cccc(CNC(=O)c2snc(N)c2Cl)c1F` [I-325], the LogP is 1.91[a].

As to `COc1ccc(CNC(=O)c2snc(N)c2C)cc1` [I-049], the LogP is 1.42[a].

`O=C(O)c1snc(N(Cc2ccccc2)Cc2ccccc2)c1-c1ccc(F)cc1` [E-VIII-010]: the “LogP [a]” value was 4.49^[a].

For `Nc1cc(C(=O)N(Cc2cc(F)ccc2F)C2CC2)sn1` [I-997], the LogP is 2.18[a].

On to `COc1ccc(CNc2nsc(C(=O)NCc3ccc(F)c(OC)c3F)c2Cl)cc1` [I-426], for which the LogP is 3.69[a].

Consider `COc1ccc(CNc2nsc(C(=O)NCc3ncc(C(F)(F)F)cc3Cl)c2Cl)cc1` [I-268], for which the LogP is 4.29[a].

For the compound `CCOC(=O)c1snc(NC(=O)c2ccccc2)c1Cl` [E-VII-020], the “LogP [a]” value is 2.45^[a].

With `O=C(NCc1c(F)cc(F)cc1F)c1snc(N=S2CCCC2)c1Cl` [II-044], the “LogP [a]” value is 1.66^[a].

Turning to `COc1ccc(CN(C(=O)OC(C)(C)C)c2nsc(C(=O)N(C)OC)c2Cl)cc1` [I-1286], the LogP is 3.75[a].

On to `O=C(NC(c1ccccc1)C1CCCCC1)c1snc(Cl)c1Cl` (stereo not drawn) [E-II-031], for which the “LogP [a]” value stood at 5.19 and the “LogP [b]” value was determined as 5.05.

Consider `COc1ccc(CNc2nsc(C(=O)NCC3OCCc4ccccc43)c2Cl)cc1` (stereo not drawn) [I-1208], for which the LogP was 3.72[a].

In the case of `Nc1cc(C(=O)NC2CCCCC2)sn1` [I-007], the LogP is 1.49[a].

With `O=C(c1snc(Cl)c1Cl)N(Cc1ccc(F)cc1F)C1CC1` [E-II-014], the “LogP [a]” value is 4.01^[a].

As to `O=C(NCCC1CCCCC1)c1snc(N=C(c2ccccc2)c2ccccc2)c1Cl` [II-083], the “LogP [a]” value was 5.92^[a].

For the compound `Nc1nsc(C(=O)NCc2c(F)cccc2F)c1Cl` [I-128], the LogP was 1.81[a].

For the compound `CCC(NC(=O)c1snc(NCc2ccc(OC)cc2)c1Cl)c1ccccc1` (stereo not drawn) [I-1265], the LogP is 4.03[a].

With `COc1ccc(CNc2nsc(C(=O)NCC3CCCC(C(F)(F)F)C3)c2Cl)cc1` (stereo not drawn) [I-106], the LogP was 4.33[a].

`Cc1c(N)nsc1C(=O)NCc1ccc(F)c(F)c1F` [I-597]: the LogP is 1.68[a].

For `CCC(c1ccccc1)N(C(=O)c1snc(N)c1Cl)C1CC1` (stereo not drawn) [I-888], the LogP is 3.11[a].

Consider `COc1ccc(CNc2nsc(C(=O)Nc3cccc(F)c3)c2Cl)cc1` [I-861], for which the LogP was 3.85[a].

As to `Nc1nsc(C(=S)NCc2ccc(Cl)cc2)c1Cl` [I-1026], the LogP was 3.12[a].

Turning to `Cc1ccc(NC(=O)c2snc(N)c2Cl)c(C)c1` [I-923], the LogP is 2.44[a].

As to `CCOC(=O)c1snc(NC(=O)C(C)(C)C)c1Cl` [E-VII-018], the “LogP [a]” value was 2.48^[a].

`COc1ccc(CNc2nsc(C(=O)NC3CCc4ccc(C(C)(C)C)cc4C3)c2Cl)cc1` (stereo not drawn) [I-1308]: the LogP was 5.41[a].

On to `COc1ccc(CNc2nsc(C(=O)NC(C)C3=NOCC3)c2Cl)cc1` (stereo not drawn) [I-1337], for which the LogP is 2.56[a].

Consider `COc1ccc(CNc2nsc(C(=O)NC3CCC4CCCC43)c2Cl)cc1` (stereo not drawn) [I-1346], for which the LogP is 4.35[a].

Turning to `Cc1ccc(C(C)C)c(CNC(=O)c2snc(N)c2Cl)c1` [I-415], the LogP was 3.15[a].

As for `Cc1cc(C)c(CN(C(=O)c2cc(N)ns2)C2CC2)c(C)c1` [I-977], the LogP was 2.86[a].

In the case of `CON(C(=O)c1snc(Cl)c1Cl)C(C)C1CCCCC1` (stereo not drawn) [E-II-028], the “LogP [a]” value turned out to be 5.27 and the “LogP [b]” value is given as 5.09.

As for `Nc1cc(C(=O)NCc2ccc(F)c(F)c2)sn1` [I-166], the LogP is 1.54[a].

Consider `COc1ccc(CNc2nsc(C(=O)NC3(c4ccccc4Br)CC3)c2Cl)cc1` [I-1322], for which the LogP is 4.40[a].

Turning to `O=C(NCc1ccc(F)cc1F)c1snc(N=S2CCCC2)c1Cl` [II-042], the “LogP [a]” value is 1.64^[a].

As to `COc1ccc(CNc2nsc(C(=O)NCC3CCCCC3(C)C)c2Cl)cc1` (stereo not drawn) [I-056], the LogP was 4.95[a].

With `CC1CCC(CNC(=O)c2snc(N)c2Cl)CC1` (stereo not drawn) [I-738], the LogP was 2.75[a].

As to `COc1ccc(CNc2nsc(C(=O)NC(C)c3ccsc3)c2Cl)cc1` (stereo not drawn) [I-1261], the LogP was 3.61[a].

As for `Cc1ccc(NC(=O)c2snc(N)c2Cl)cc1` [I-916], the LogP was 2.27[a].

Turning to `COc1ccc(CNc2nsc(C(=O)NC(C)c3ccccn3)c2Cl)cc1` (stereo not drawn) [I-1197], the LogP was 2.57[a].

In the case of `Nc1nsc(C(=O)N(C2CCCCC2)C2CC2)c1Cl` [I-980], the LogP is 2.78[a].

On to `Nc1nsc(C(=O)N(Cc2cc(Cl)ccc2Br)C2CC2)c1Cl` [I-365], for which the LogP was 3.29[a].

In the case of `COc1ccc(CNc2nsc(C(=O)N3CCc4cc(F)ccc4C3)c2Cl)cc1` [II-065], the “LogP [a]” value was 3.73^[a].

As for `COc1ccc(CNc2nsc(C(=O)NC(C)Cc3ccc(Cl)cc3)c2Cl)cc1` (stereo not drawn) [II-023], the “LogP [a]” value was 4.32^[a].

As to `O=C(NCc1ccc(Cl)cc1)c1snc(NC2CC2)c1Cl` [I-580], the LogP is 3.07[a].

In the case of `Nc1nsc(C(=O)N(Cc2cc(Cl)ccc2F)C2CC2)c1Cl` [I-364], the LogP is 2.86[a].

As for `COc1ccc(CN(C(=O)C(=O)N[C@H](C)C2CCCCC2)c2nsc(C(=O)N[C@H](C)C3CCCCC3)c2Cl)cc1` [I-072], the LogP is 4.54[a].

Take `Nc1cc(C(=O)N(Cc2c(Cl)cccc2Cl)C2CC2)sn1` [I-968]: the LogP was 2.53[a].

With `COc1ccc(CNc2nsc(C(=O)N(Cc3c(Cl)cccc3Cl)C3CC3)c2Cl)cc1` [I-929], the LogP is 4.80[a].

Turning to `Nc1nsc(C(=O)NCc2ccc(F)cc2)c1Br` [I-831], the LogP is 1.82[a].

On to `Nc1nsc(C(=O)NCc2cc(F)c(F)c(F)c2)c1Cl` [I-131], for which the LogP is 2.13[a].

Consider `O=C(NCc1ccccc1F)c1snc(NCc2ccccc2)c1Cl` [I-069], for which the LogP was 3.56[a].

With `CC(c1cc(Cl)cc(Cl)c1)N(C(=O)c1snc(N)c1Cl)C1CC1` (stereo not drawn) [I-952], the LogP was 3.70[a].

Regarding `Nc1cc(C(=O)NCCc2ccccc2)sn1` [I-854], the LogP is 1.52[a].

Regarding `COc1ccc(CNc2nsc(C(=O)NC(C)c3ccc(Cl)nc3)c2Cl)cc1` (stereo not drawn) [I-1343], the LogP was 3.17[a].

Take `C[C@@H]1CCCC[C@H]1NC(=O)c1snc(N)c1F` (relative stereo) [I-1357]: the LogP was 2.21[a].

As to `COc1ccc(CNc2nsc(C(=O)N(Cc3cc(C)ccc3F)C3CC3)c2Cl)cc1` [I-986], the LogP was 4.46[a].

As to `COc1ccc(CNc2nsc(C(=O)NCc3cc(C)ccc3C3(C)CC3)c2Cl)cc1` [I-391], the LogP is 4.92[a].

In the case of `COc1ccc(CNc2nsc(C(=O)NCC3CCCC3)c2Cl)cc1` [I-044], the LogP was 4.04[a].

As to `Nc1cc(C(=O)NCc2ccccc2)sn1` [I-008], the LogP is 1.32[a].

Regarding `O=C(NCc1cc(F)c(F)cc1F)c1snc(N=S2CCCC2)c1F` [II-074], the “LogP [a]” value was 1.53^[a].
